Patent publication US20230348518A1 (priority 2020, published 2023)
“Also recorded” adds a separate entry of the source.

Columns and labels:
HeLa cells = settings: supra-physiologic doses; cited from earlier work
human CMG (hCMG) = system: T1, human CMG (hCMG); test: human CMG biochemical assays (primary and secondary), format not specified; settings: for inhibition of the human CMG in biochemical assays (primary and secondary): in vitro
T1 construct: made in house; host or cells: insect cells (Sf9), baculoviruses
Source text: (§1) We have focused on the enzymatic ATP hydrolysis steps used by the core MCM hexamers of the CMG helicase to identify ATP competitive inhibitors of […] and/or hydrolysis within one or more of the MCM hexamer pairs. To do this, we established a means to express and purify the human CMG helicase in our lab, and then we verified the isolated CMG is active in DNA unwinding assays. We then set up a novel assay to quantitatively measure ATP hydrolysis (ADP production) by the human CMG. This assay used reagents that are sensitive enough to read small changes in ADP production from our functioning CMG helicase in an in vitro biochemical enzyme assay. This assay relies on reading fluorescent-polarization (FP) changes from an antibody that binds to an ADP-fluorophore molecule that is displaced when the CMG produces ADP on its own. The results are obtained using a Perkin-Elmer Envision II FP plate reader. This approach is referred to as our primary screening assay. Our secondary screening assay, which is lower through-put, uses a traditional radioactive-based DNA fork unwinding method of analysis to verify whether a given potential CMGi is truly capable of inhibiting CMG elongation along DNA and subsequent fork unwinding.

human CMG helicase [1] = system: T2, human CMG helicase; test: radioactive DNA fork unwinding helicase assay; assay type: biochemical; settings: for inhibition of CMG activity in fork unwinding assay: 0.5 mM, 30 minutes at 37 degrees Celsius, compared to Novobiocin; for inhibition of human CMG helicase in fork unwinding assay: in vitro, FIG. 2
T2 construct: made in house; host or cells: insect cells (Sf9), baculoviruses
Source text: as §1
The human CMG helicase assay was performed with purified CMG before glycerol gradient centrifugation. Novobiocin (Compound A), Clorobiocin (Compound D), and Coumermycin A1 (Compound B) were incubated with 2 μL human CMG and 1 μL ^32P-labeled DNA forks for 30 minutes at 37 degrees Celsius. The reactions were stopped with 6× loading buffer, separated in 10% PAGE, and dried on filter paper followed by autoradiography.
(§2) For feasibility of this example, it is shown that sufficient quantities of enzymatically active hCMG can be purified using an established approach (FIGS. 9A-9D). This method of hCMG purification was previously devised by the Hurwitz lab and involves the co-expression of all 11 subunits of the hCMG using baculoviruses and insect cells, followed by a five-step chromatography-based enrichment scheme. The steps of the purification are outlined in FIG. 9A, with Westerns on isolated fractions used to assess the completeness of hCMG subunits and enzyme recovered after the final glycerol gradient step (FIG. 9B). […] Activity is measured using a classical fork-unwinding helicase assay that relies on radioactive forks being separated, and ssDNA being recognized and quantifiable in gels using PhosphorImager analyses (FIG. 9D). SV40-derived Tag helicase was also purified as a positive control, and our active hCMG is close in forkunwinding output to that of TAg. […] Given that multiple fractions produce active hCMG, this provides ample quantities of hCMG to design, calibrate, and test a workflow for hCMG chemical screening. […]

human CMG helicase [2] = system: T2, human CMG helicase; test: fluorescent-polarization (FP) assay measuring ADP production; assay type: biochemical; settings: for CMG activity inhibited: 1 mM, fluorescence-polarization assay; for inhibition of CMG helicase in fluorescent-polarization assay: FIG. 3
Source text: as §1
The components for the assay used for ATP hydrolysis measurements of the hCMG are produced by BellBrook Labs, and the kit is called the ADP2 Transcreener™ FP Assay. […] As shown in FIGS. 10A-10B, the hCMG is incubated with ATP, buffer, and non-radioactive fork substrates for a determined length of time to allow hCMG activity to occur (or not, if an inhibitor is present). This produces ADP, which is recognized by the FP assay when free ADP competes an ADP-fluor off of a patented antibody that binds ADP with high affinity. […] But this polarity is reduced in a quantitative manner depending on the presence of free ADP (produced by the hCMG here), once the ADP-fluor is released from the antibody. Noteworthy, the fluor (Alexa 633) used here is in the far-red spectrum, which reduces problems during screening that can (likely) occur when chemicals themselves emit red or green wavelengths that interfere with plate reader steps (can give false positives). The system is very sensitive to even small changes in ADP production, being able to sense 0.5-2% changes quite easily (verified in our hands, using ADP-ATP standard curves). Low substrate conversion to ADP can be detected with a Z′-factor≥0.7 at 2.5% ATP conversion. The latter is achieved with a read time of less than 5 minutes. Signal stability is greater than 24 hr, and ADP-FP reagents are stable at RT for 8 hrs and tolerate 1% DMSO. Light output is also stable in the presence of up to 10% DMSO, DMF, ethanol, acetonitrile, or methanol solvents. ATP starting concentrations can be within the range of 0.1-1000 μM, and our hCMG enzyme requires 500 μM ATP for functioning near its published Km, which has been verified applies to the hCMG preparations (not shown).
Since hCMG is purified, feasibility testing of the FP assay was performed with the hCMG (FIGS. 10A-10B). Cubes, filters, and mirrors for dual-FP analysis were obtained using PE Envision II equipment, and such items were verified as functional. A window for change in millipolarizations (AmP window) is established with reagents alone, and the amount of patented antibody needed to achieve an optimal window is pre-determined in pilot titration assays using ATP at the required 500 μM level. […] Using formulas BellBrook Labs supplies for their reagents, it was also calculated that the assay was working with a Z′-factor of >0.6 (calculations not shown). Optimal ΔmP can be as high as 80% change (EC80). Achieving this will also increase our Z′-factor to 0.8-0.9.

[3] = system: DNA damage / Parp cleavage in tumor cells; test: DNA damage and Parp cleavage in cells; assay type: cell-based; settings: tumor cells versus Hacat
[4] = system: MCM assembly and activity; test: MCM assembly and activity in cells; assay type: cell-based; settings: Hacat cells and OS tumor cells (143b)
OS tumor = OS tumor growth in mice; assay type: in vivo
OS tumor cells = test: inhibition of osteosarcoma tumor cells; assay type: cell-based; settings: FIGS. 14A-14F
[5] = target: HPV18 E1 helicase (helicase domain only) (Human papillomavirus type 18, UniProt P06789); test: HPV18 E1 helicase inhibition; assay type: biochemical
HPV16 E1 helicase [6] = test: HPV16 E1 helicase inhibition; assay type: biochemical; settings: for inhibition of E1 helicase from HPV16: FIG. 12, construct not stated
HPV16 E1 helicase [7] = target: HPV16 E1 helicase (Human papillomavirus type 16, UniProt P03114); test: HPV16 E1 helicase inhibition; assay type: biochemical; settings: full-length
multiple tumor types = test: sensitivity of multiple tumor types; assay type: cell-based; settings: low doses, FIG. 17
[8] = target: HPV31 E1 helicase (full-length) (Human papillomavirus 31, UniProt P17382); test: HPV31 E1 helicase inhibition; assay type: biochemical
[9] = system: RPA loading onto DNA/chromatin in A549 NSCLC cells; test: RPA32 western blot of total cell extracts and chromatin-bound fractions; assay type: cell-based; settings: A549 NSCLC cells, 0.1, 10, or 25 μM, 48 hours
Source text: Cells were harvested and protein from each group isolated into total cell extracts (TCE) or chromatin-bound fractions. Standard SDS-PAGE followed by western blot was used to separate proteins and probe for RPA32 presence in TCE and bound chromatin. Actin serves as a loading control. […] There is also some toxicity of Coumermycin A1 (Compound B).

[10] = target: T3, Simian virus 40 (SV40) large-T-antigen (Tag) DNA helicase (Simian virus 40, UniProt P03070); test: classic fork unwinding assay; assay type: biochemical; settings: in vitro, FIG. 2 and titration FIG. 11
T3 construct: made in house
Source text: as §2, with “TAg. Each prep of hCMG thus obtained is giving us -5-10 fmol of hCMG per uL of glycerol gradient fraction, with fractions totaling 150-170 uL (3-4 fractions obtained with obvious hCMG; FIG. 9B). Only 1 uL hCMG is required to easily see activity using this method (FIG. 9D).” for “TAg.”

[11] = system: Hacat non-tumor skin cells; test: sensitivity of non-tumor Hacat cells; assay type: cell-based; settings: FIGS. 17 and 19

T3 sequence (P03070 whole entry): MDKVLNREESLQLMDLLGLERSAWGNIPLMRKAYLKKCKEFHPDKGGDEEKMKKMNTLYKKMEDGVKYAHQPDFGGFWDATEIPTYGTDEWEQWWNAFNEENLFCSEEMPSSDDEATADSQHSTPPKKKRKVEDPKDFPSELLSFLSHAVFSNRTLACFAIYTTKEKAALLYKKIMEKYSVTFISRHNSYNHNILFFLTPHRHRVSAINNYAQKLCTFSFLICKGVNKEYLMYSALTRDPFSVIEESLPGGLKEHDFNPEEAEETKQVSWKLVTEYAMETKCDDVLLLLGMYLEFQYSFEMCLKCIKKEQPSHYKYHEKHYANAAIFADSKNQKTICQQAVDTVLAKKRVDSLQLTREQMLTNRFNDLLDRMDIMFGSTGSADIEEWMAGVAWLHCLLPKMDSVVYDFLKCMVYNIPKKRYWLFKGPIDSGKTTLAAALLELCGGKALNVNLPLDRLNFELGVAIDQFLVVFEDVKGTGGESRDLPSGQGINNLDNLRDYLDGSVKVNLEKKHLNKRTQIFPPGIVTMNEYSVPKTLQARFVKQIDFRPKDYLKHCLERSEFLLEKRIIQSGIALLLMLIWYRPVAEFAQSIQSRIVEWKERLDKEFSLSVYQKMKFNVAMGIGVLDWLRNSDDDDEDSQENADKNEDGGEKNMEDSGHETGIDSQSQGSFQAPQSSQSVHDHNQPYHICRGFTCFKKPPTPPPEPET
Chain of HPV31 E1 helicase (full-length) (P17382 whole entry): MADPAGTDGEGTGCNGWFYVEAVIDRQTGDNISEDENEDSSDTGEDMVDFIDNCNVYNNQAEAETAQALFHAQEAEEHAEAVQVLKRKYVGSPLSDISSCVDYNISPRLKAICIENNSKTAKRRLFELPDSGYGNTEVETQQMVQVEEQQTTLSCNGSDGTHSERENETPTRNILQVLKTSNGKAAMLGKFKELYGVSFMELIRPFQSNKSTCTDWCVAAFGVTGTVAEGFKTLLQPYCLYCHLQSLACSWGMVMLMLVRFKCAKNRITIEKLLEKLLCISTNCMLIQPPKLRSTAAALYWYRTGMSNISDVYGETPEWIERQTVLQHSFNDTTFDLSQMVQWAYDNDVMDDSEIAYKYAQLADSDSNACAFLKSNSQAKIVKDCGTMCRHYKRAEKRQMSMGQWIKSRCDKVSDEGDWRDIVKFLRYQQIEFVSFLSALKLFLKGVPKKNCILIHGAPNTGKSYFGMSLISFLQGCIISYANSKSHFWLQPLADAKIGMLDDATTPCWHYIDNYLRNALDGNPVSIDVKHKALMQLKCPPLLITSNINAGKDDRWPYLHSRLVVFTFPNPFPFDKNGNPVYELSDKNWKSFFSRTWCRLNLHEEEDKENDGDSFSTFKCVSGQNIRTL
Chain of HPV16 E1 helicase (Human papillomavirus type 16, UniProt P03114) (P03114 whole entry): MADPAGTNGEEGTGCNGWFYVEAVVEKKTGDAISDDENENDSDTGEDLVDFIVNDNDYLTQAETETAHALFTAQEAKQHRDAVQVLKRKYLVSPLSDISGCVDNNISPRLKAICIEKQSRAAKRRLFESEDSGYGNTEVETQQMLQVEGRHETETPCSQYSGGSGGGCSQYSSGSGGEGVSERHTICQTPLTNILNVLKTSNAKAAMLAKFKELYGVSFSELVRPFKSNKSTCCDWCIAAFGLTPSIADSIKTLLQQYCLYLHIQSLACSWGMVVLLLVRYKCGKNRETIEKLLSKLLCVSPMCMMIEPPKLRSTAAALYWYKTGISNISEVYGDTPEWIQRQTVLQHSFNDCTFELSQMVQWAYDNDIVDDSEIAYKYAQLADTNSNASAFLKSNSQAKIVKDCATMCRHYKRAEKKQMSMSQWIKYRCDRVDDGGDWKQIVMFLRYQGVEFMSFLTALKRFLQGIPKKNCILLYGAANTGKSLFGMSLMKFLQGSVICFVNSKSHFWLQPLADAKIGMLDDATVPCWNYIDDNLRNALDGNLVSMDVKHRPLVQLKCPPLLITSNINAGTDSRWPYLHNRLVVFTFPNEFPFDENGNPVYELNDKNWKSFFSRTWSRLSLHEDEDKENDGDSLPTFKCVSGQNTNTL
Chain of HPV18 E1 helicase (helicase domain only) (P06789 458-608 limits assumed): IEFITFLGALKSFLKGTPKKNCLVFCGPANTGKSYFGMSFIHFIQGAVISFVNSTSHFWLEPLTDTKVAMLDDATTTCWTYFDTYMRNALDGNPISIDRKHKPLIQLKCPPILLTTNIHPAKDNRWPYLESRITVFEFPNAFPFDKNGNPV

Row | SMILES | inhibition of the human CMG in biochemical assays (primary and secondary) (human CMG (hCMG)) | inhibition of CMG activity in fork unwinding assay (human CMG helicase [1]) | CMG activity inhibited (human CMG helicase [2]) | inhibition of CMG helicase in fluorescent-polarization assay (human CMG helicase [2]) | inhibition of OS tumor cells versus non-tumor cells (Hacat) (OS tumor cells) | inhibition of E1 helicase from HPV16 (HPV16 E1 helicase [6]) | inhibition of human CMG helicase in fork unwinding assay (human CMG helicase [1]) | inhibition of SV40 Tag helicase in fork unwinding assay [10] | other results
1 | O=C(O)c1cn(C2CC2)c2cc(N3CCNCC3)c(F)cc2c1=O [ciprofloxacin] |  |  |  |  |  |  |  |  | cell growth of HeLa cells (HeLa cells): stopped cell growth
2 | CO[C@@H]1[C@@H](OC(=O)c2ccc(C)[nH]2)[C@@H](O)[C@H](Oc2ccc3c(O)c(NC(=O)c4ccc(O)c(CC=C(C)C)c4)c(=O)oc3c2Cl)OC1(C)C [clorobiocin] | very effectively inhibit the human CMG helicase in vitro; also recorded: effectively inhibit the human CMG | inhibit CMG activity | 81.5% | inhibiting CMG helicase |  |  |  |  | inhibition of human CMG (hCMG), dose dependence (human CMG (hCMG); FIG. 24): inhibits human CMG (hCMG) in a dose-dependent manner; inhibition of human CMG (hCMG) (human CMG (hCMG); direct comparison to novobiocin (500 uM), FIG. 25): inhibits human CMG (hCMG)
3 | CO[C@@H]1[C@@H](OC(=O)c2ccc(C)[nH]2)[C@@H](O)[C@H](Oc2ccc3c(O)c(NC(=O)c4c[nH]c(C(=O)Nc5c(O)c6ccc(O[C@@H]7OC(C)(C)[C@H](OC)[C@@H](OC(=O)c8ccc(C)[nH]8)[C@H]7O)c(C)c6oc5=O)c4C)c(=O)oc3c2C)OC1(C)C [coumermycin-A1, coumermycin A1] | effective CMGi | inhibit CMG activity | 91.7% | inhibiting CMG helicase | inhibits OS tumor cells with more specificity than non-tumor cells (Hacat) | can be directly inhibited | capable of being inhibited | capable of being inhibited; also recorded: inhibiting SV40 Tag helicase | DNA damage leading to Parp cleavage [3]: causes DNA damage specifically in tumor cells; inhibition of MCM assembly and activity [4]: inhibits MCM assembly and activity; OS tumor growth in mice (OS tumor; 12 day analysis): suppresses OS tumor growth in mice; OS tumor growth in mice (OS tumor; 18 day analysis): suppresses OS tumor growth in mice; inhibition of HPV18 E1 helicase [5]: is inhibited; inhibition of HPV16 E1 helicase (HPV16 E1 helicase [6]; helicase domain only): is inhibited; inhibition of HPV16 E1 helicase (HPV16 E1 helicase [7]): is inhibited; sensitivity of multiple tumor types to CMG helicase inhibition (multiple tumor types): sensitive to low doses; inhibition of HPV31 E1 helicase [8]: is inhibited; toxicity [9]: some toxicity; RPA loading onto DNA/chromatin (RPA32 in chromatin-bound fraction) ([9]; listed as Coumermycin A1): inhibits RPA loading onto DNA/chromatin; RPA loading onto DNA/chromatin (RPA32 in chromatin-bound fraction) ([9]; listed as coumermycin A1): inhibiting RPA loading onto DNA/chromatin; sensitivity of Hacat non-tumor cells to CMG helicase inhibition [11]: far less sensitive
4 | CO[C@@H]1[C@@H](OC(N)=O)[C@@H](O)[C@H](Oc2ccc3c(O)c(NC(=O)c4ccc(O)c(CC=C(C)C)c4)c(=O)oc3c2C)OC1(C)C [novobiocin] | not to inhibit the human CMG at any level of exposure |  | 12.5% | does not | does not inhibit any cells | can be directly inhibited | not | not | RPA loading onto DNA/chromatin (RPA32 in chromatin-bound fraction) [9]: does not inhibit RPA at all
